Data reported in patent publication US11274131B2, “IgM-mediated receptor clustering and cell modulation” (MAYO FOUNDATION FOR MEDICAL EDUCATION AND RESEARCH, priority 2007, dated 2022).

Key:
B7-DC (PD-L2) = conditions: cited from earlier work
[1] = test system: mouse bone marrow-derived DC; test: Immunoblot of DAP12 and Syk phosphorylation in mouse DC; type: cell-based
Description: FIG. 6A to 6C is a series of histograms and pictures showing that TREM-2 is recruited into the MTAb-induced cap on mouse DC and expression of TREM-2 is important for MTAb-induced phosphorylation of the adapter DAP-12 and the protein kinase Syk. FIG. 6A: six day cultures of bone marrow-derived mouse DC were differentiated in GM-CSF and IL-4 were tagged with antibodies specific for the class II molecule IA^b (25-9-17-APC) and for TREM-2 (237916-PE) for 15 minutes prior to stimulation with the MTAb B7-DC XAb (open histograms) or with isotype control antibody sHIgM39 (filled histograms). Cells were fixed in 0.1% paraformaldehyde prior to analysis by flow cytometry. FRET between PE and APC was assessed collecting light emitted by APC following excitation of PE with a 488 nm laser. Expression of TREM-2 on the cells was assessed by staining with 237916-PE antibody alone (open histogram) or isotype control antibody (closed histogram, bottom-right panel). For FIG. 6B, mouse bone marrow-derived DC were transduced on day 2 of culture with a retrovirus expressing an […] specific for TREM-2 or a control virus containing a scrambled sequence. On day 5 of culture, the transduced cells were not treated (0′ time), activated with the isotype control antibody sHIgM39, or activated with B7-DC XAb for 5 minutes. DAP12 was immunoprecipitated from cell lysates with antibody MC457, resolved by electrophoresis, and the blotted filters were probed with the phosphotyrosine-specific antibody 4G10. FIG. 6C: the lysates used in the experiments from FIG. 6B were immunoprecipitated with the Syk-specific antibody (4D10) and analyzed by western blot for the presence of phosphotyrosine.
For transducing DC with the virus, 1 ml of supernatant containing the scrambled virus or shDNA containing dominant negative TREM-2 virus was mixed with 2 ml of RPMI. Cytokines were added to a final concentration of 10 ng/ml murine GM-CSF and 1 ng/ml murine IL-4 at day 2 of DC culture. […]
In experiments involving assessment of the phosphorylation status of various protein kinases using whole cell lysate, dendritic cells of mouse or human origin or Jurkat cells were stimulated at the indicated times with control antibody or B7-DC XAb, and were lysed on ice for 10 minutes in 1 ml buffer containing 20 mM Tris-HCl, 40 mM NaCl, 5 mM EDTA, 50 mM NaF, 30 mM Na4P2O7, 0.1% BSA, 1 mM Na3VO4, 1 mM PMSF, 5 μg/ml aprotinin, 10 μg/ml leupeptin, and 1% Triton X-100. […] Tyrosine-phosphorylated proteins were detected using the anti-phosphotyrosine specific antibody, 4G10, followed by goat anti-mouse IgG coupled to Horse Radish Peroxidase (Santa Cruz Biotechnology) and the SuperSignal detection system (Pierce Biotechnology, Rockford, Ill.). […]

Substance: B7-DC XAb: human monoclonal IgM from a Waldenstrom's macroglobulinemia patient that binds and cross-links B7-DC on DC
- binding to B7-DC on the surface of DC (B7-DC (PD-L2)): binds
- phosphorylation of DAP12 and Syk ([1]; DC transduced with scrambled shDNA): proceeded in the same manner
- phosphorylation of DAP12 and Syk ([1]; DC transduced with shDNA for TREM-2): absence of phosphorylation of DAP12 and Syk
- phosphorylation of DAP12 and Syk ([1]; TREM-2 KO DC): not induced
- phosphorylation of DAP12 and Syk ([1]; wild type DC): readily induced
